Like-named read-outs stand apart in the source and are kept apart here. Marks after values point to notes of the source that are not given here.
What was measured:
[1] = tested on: Beagle dogs
Method: In the studies, male and female Beagle dogs were treated at high doses of ornidazole enantiomers for 2 weeks, and then sacrificed for anatomical and pathological examinations. […] All the doses were administered in the levo- and racemate groups.

[2] = tested on: trichomonas vaginalis; assay: Pharmacodynamic study of trichomonas vaginalis infection in mice; format: in vivo; parameters: ED90: unit not given beside the values; conditions: for ED50: Trichomonas vaginalis; for ED90: dosage of 90% inhibition rate
Method: Male ICR mice were injected intraperitoneally with liquid containing 0.4 ml 3×10^6 trichomonas vaginalis (trichomonas vaginalis from clinical patients). The mice were randomly divided into 19 groups, each with 10. The mice in solvent control group were given blank solutions by tail vein injection. The treatment groups were injected intravenously at 2, 24, 48, and 72 hours after infection with active drugs. The animals were killed five days after infection. Washing offal, fluid was centrifuged, and microscopically examined for life larvae. Autopsy was performed to determine whether there was any visceral and abdominal abscess, microscopic examination was conducted to determine the number of live trichomoniasis in the abscess. […] The abscess formation was inhibited in the treatment groups[…] and the number of live trichomoniasis was reduced. Calculate the dosage of 50% (ED50) and 90% (ED90) inhibition rate.

[3] = tested on: amoeba dysentery; assay: Pharmacodynamic study of cecum amoeba infection in mice; format: in vivo; conditions: male ICR mice infected in the cecum, drug i.v. at 24, 48, 72 hours; for ED50: Mus musculus, iv, dosage of 50% inhibition rate; for ED90: dosage of 90% inhibition rate
Method: Male ICR mice were injected with liquid containing about 200,000 units of amoeba dysentery in the cecum. The mice were randomly divided into 19 groups, each with 10. The mice in solvent control group were given blank solutions by tail vein injection. The treatment groups were injected intravenously at 24, 48, 72 hours after infection with active drugs. The animals were killed six days after infection. Intestinal mucosal biopsies were done, and comparative studies of different stages of the amoeba were studied under microscope. […] Calculated the dosage of 50% (ED50) and 90% (ED90) inhibition rate.

[4] = tested on: righting reflex; assay: Hypnotic effect, loss of righting reflex; format: in vivo, mice
Method: Thirty minutes after drug administration, the number of animals losing righting reflex (LORR) was recorded. […] Sodium pentobarbital was used at […] as the positive control.

[5] = tested on: Remefline-induced convulsion; assay: Anticonvulsant effects on Remefline-induced convulsion in mice; format: in vivo
Method: In one experiment, the anticonvulsant effects of levo- and dextro-ornidazole against drug-induced convulsions in mice were compared. In four different animal convulsion models, mice were treated by four different seizure-inducing agents, including Remefline, Strychnine, isoniazid, thiosemicarbazide. Levo- or dextro-ornidazole was administered along with the seizure-inducing agents, and several outcomes were measured, including rate of convulsion, mortality rate, time to convulsion (latency), and time to death. Diazepam was used as a positive anticonvulsant control.
(§1) Mice are randomized into 4 treatment groups (n=10 with half male and half female): dextro- or levo-ornidazole (dosage 40, 80, 160 mg/kg), vehicle control group (15% propylene glycol in 0.9% sodium chloride, 20 mL/kg) and the positive control group. Animals are treated with known convulsion-inducing agents, followed by the drug or vehicle control given intravenously. The dose volume is 20 mL/kg with an infusion rate of 0.2 mL/10 seconds.

[6] = tested on: motor balance and coordination; conditions: both, mouse, in vivo
Method: Motor balance and coordination were tested using a modified beam walking method. Mice were put on a smooth beam tilted at an angle of 70 degree. Mice passed the test by standing on the beam for 0.5 minute without falling off. All the mice were pre-screened before the studies, and a total of 110 mice were selected by passing the beam test in 3 consecutive tries. The selected mice were divided into 11 groups with 10 mice in each group (half male and half female). At certain time points after drug administration, mice were tested on the beam for 3 consecutive times. A mouse was counted as failing to the test if it fell off the beam for 2 or more times.
The dose volume was 0.2 mL/10 gram and infusion rate was 0.2 mL/10 seconds. Chlorpromazine was used as the positive control.

[7] = tested on: isoniazid-induced convulsion; assay: Anticonvulsant effects on isoniazid-induced convulsion in mice; format: in vivo; conditions: Mean ± SD, n=10
Method: as §1, with “seconds. The anticonvulsant effects are observed and recorded (see Tables 2-6).” for “seconds.”

[8] = male ICR mice infected intraperitoneally, drug i.v. at 2, 24, 48, 72 hours
[9] = male ICR mice infected intraperitoneally, drug i.v. at 2, 24, 48, 72 hours, dosage of 50% inhibition rate, read-out: ED50
[10] = both, mouse, in vivo, 40 mg/kg, 30 min
[11] = both, mouse, in vivo, 80 mg/kg, 30 min

| Compound | ED90 [2, 8] | ED50 [3] [mg/kg] | ED90 [3] | Toxicity Severity ([1]; dog, in vivo, iv, 200 mg/kg) | Mortality Rate ([5]; 40 mg/kg i.v., n=10) | Rate of Convulsion ([5]; 40 mg/kg i.v., n=10) | Rate of Convulsion ([5]; 80 mg/kg i.v., n=10) | Mortality Rate ([5]; 160 mg/kg i.v., n=10) | Rate of Convulsion ([5]; 160 mg/kg i.v., n=10) | Number of Animals Fall Off ([6]; 40 mg/kg, 0.5 h) | Number of Animals Fall Off ([6]; 40 mg/kg, 1 h) | Number of Animals Fall Off ([6]; 40 mg/kg, 2 h) | Number of Animals Fall Off ([6]; 40 mg/kg, 3 h) | Number of Animals Fall Off ([6]; 40 mg/kg, 4 h) | Number of Animals Fall Off ([6]; 80 mg/kg, 0.5 h) | Number of Animals Fall Off ([6]; 80 mg/kg, 1 h) | Number of Animals Fall Off ([6]; 80 mg/kg, 2 h) | Number of Animals Fall Off ([6]; 80 mg/kg, 3 h) | Number of Animals Fall Off ([6]; 80 mg/kg, 4 h) | Number of Animals Fall Off ([6]; 160 mg/kg, 0.5 h) | further results |
| --- | --- | --- | --- | --- | --- | --- | --- | --- | --- | --- | --- | --- | --- | --- | --- | --- | --- | --- | --- | --- | --- |
| Cc1ncc([N+](=O)[O-])n1CC(O)CCl (racemic) [Racemic ornidazole, 1-(3-Chloro-2-hydroxypropyl)-2-methyl-5-nitroimidazole] | 43.8 | 11.4 | 55.2 |  |  |  |  |  |  |  |  |  |  |  |  |  |  |  |  |  | Toxicity Severity ([1]; Beagle dogs, I.V. 200 mg/kg for 2 weeks): Moderate; ED50 ([2]; 72 h): 11.3 mg/kg; Number of animals Loss of Righting Flex 30 min Post-dose ([4]; mice, 40 mg/kg, 10 animals): 0; Number of animals Loss of Righting Flex 30 min Post-dose ([4]; mice, 80 mg/kg, 10 animals): 0; Number of animals Loss of Righting Flex 30 min Post-dose ([4]; mice, 160 mg/kg, 10 animals, listed as Racemate): 6*^#; Number of animals Loss of Righting Flex 30 min Post-dose ([4]; mice, 160 mg/kg, 10 animals, listed as racemate): 6 |
| Cc1ncc([N+](=O)[O-])n1C[C@H](O)CCl [L-ornidazole, S-(−)-ornidazole] | 32.6 | 10.5 | 41.2 | Mild | 10/10 | 10/10 | 10/10^# | 1/10** | 9/10^## | 0 | 1 | 0 | 0 | 0 | 0 | 0 | 0 | 1 | 1 | 0 | Mortality Rate ([5]; 80 mg/kg i.v., n=10, listed as Levo-ornidazole, 80 mg/kg): 10/10^##; Mortality Rate ([5]; 80 mg/kg i.v., n=10, listed as levo-ornidazole, 80 mg/kg): 10/10; Number of Animals Fall Off ([6]; 160 mg/kg, 1 h): 0; Number of Animals Fall Off ([6]; 160 mg/kg, 2 h): 3; Number of Animals Fall Off ([6]; 160 mg/kg, 3 h): 2; Number of Animals Fall Off ([6]; 160 mg/kg, 4 h): 1; ED50 [2, 9]: 9.1 mg/kg; Number of animals Loss of Righting Flex 30 min Post-dose [4, 10]: 0; Number of animals Loss of Righting Flex 30 min Post-dose [4, 11]: 0; Number of animals Loss of Righting Flex 30 min Post-dose ([4]; both, mouse, in vivo, 160 mg/kg, 30 min): 0; Number of animals Loss of Righting Flex 30 min Post-dose ([4]; mouse, in vivo, 160 mg/kg): none; Convulsion Latency ([7]; 40 mg/kg i.v.): 37.1 ± 5.8 min; Time to Death ([7]; 40 mg/kg i.v.): 47.6 ± 5.6 min; Convulsion Latency ([7]; 80 mg/kg i.v.): 38.3 ± 6.3 min; Time to Death ([7]; 80 mg/kg i.v.): 48.3 ± 9.6 min; Convulsion Latency ([7]; 160 mg/kg i.v.): 45.0 ± 7.8 min; Time to Death ([7]; 160 mg/kg i.v.): 75.2 ± 19.0 min |
| Cc1ncc([N+](=O)[O-])n1C[C@@H](O)CCl [D-ornidazole, R-(+)-ornidazole] | 54.5 | 13.3 | 64.4 | Severe | 10/10 | 10/10 | 5/10* | 0/10** | 0/10** | 0 | 1 | 2 | 3 | 0 | 3 | 3 | 2 | 1 | 0 | 10## | Mortality Rate ([5]; 80 mg/kg i.v., n=10, listed as Dextro-ornidazole, 80 mg/kg): 0/10**; Mortality Rate ([5]; 80 mg/kg i.v., n=10, listed as dextro-ornidazole, 80 mg/kg): 0/10; Number of Animals Fall Off ([6]; 160 mg/kg, 1 h): 10##; Number of Animals Fall Off ([6]; 160 mg/kg, 2 h): 10##; Number of Animals Fall Off ([6]; 160 mg/kg, 3 h): 10##; Number of Animals Fall Off ([6]; 160 mg/kg, 4 h): 9##; ED50 [2, 9]: 14.1 mg/kg; Number of animals Loss of Righting Flex 30 min Post-dose [4, 10]: 0; Number of animals Loss of Righting Flex 30 min Post-dose [4, 11]: 0; Convulsion Latency ([7]; 40 mg/kg i.v.): 43.2 ± 5.4 min; Time to Death ([7]; 40 mg/kg i.v.): 53.6 ± 7.2 min; Convulsion Latency ([7]; 80 mg/kg i.v.): 46.1 ± 2.2 min; Time to Death ([7]; 80 mg/kg i.v.): 57.0 ± 7.3 min; Convulsion Latency ([7]; 160 mg/kg i.v.): 48.3 ± 14.1 min; Time to Death ([7]; 160 mg/kg i.v.): 81.5 ± 15.8 min |

Source: patent publication US20130202698A1 (NANJING SANHOME PHARMACEUTICAL CO., LTD., priority 2005, published 2013)
